Experimental data from the NIST ThermoML archive (doi:10.1021/je025630q).
Numbers after ± are expanded uncertainties.

Assay: compressibility factor (dimensionless); xn = mol fraction of the nth substance listed
Details: Gas, Burnett expansion method

CF [fluoromethane] + O=C=O
Details | compressibility factor
303.15 K, 126.9 kPa, x2 = 0.283 | 0.995 ± 0.0001
303.15 K, 139.3 kPa, x2 = 0.402 | 0.9955 ± 0.0001
303.15 K, 155.9 kPa, x2 = 0.59 | 0.9951 ± 0.0001
303.15 K, 174.7 kPa, x2 = 0.798 | 0.9946 ± 0.0001
303.15 K, 188.9 kPa, x2 = 0.283 | 0.9896 ± 0.0001
303.15 K, 207.3 kPa, x2 = 0.402 | 0.9896 ± 0.0001
303.15 K, 231.9 kPa, x2 = 0.59 | 0.9892 ± 0.0001
303.15 K, 259.9 kPa, x2 = 0.798 | 0.9886 ± 0.0001
303.15 K, 280.7 kPa, x2 = 0.283 | 0.9823 ± 0.0001
303.15 K, 308 kPa, x2 = 0.402 | 0.9821 ± 0.0001
303.15 K, 344.5 kPa, x2 = 0.59 | 0.9815 ± 0.0001
303.15 K, 386 kPa, x2 = 0.798 | 0.9807 ± 0.0001
303.15 K, 415.8 kPa, x2 = 0.283 | 0.9721 ± 0.0001
303.15 K, 456.1 kPa, x2 = 0.402 | 0.9715 ± 0.0001
303.15 K, 510 kPa, x2 = 0.59 | 0.9708 ± 0.0001
303.15 K, 571.5 kPa, x2 = 0.798 | 0.97 ± 0.0001
303.15 K, 613.1 kPa, x2 = 0.283 | 0.9576 ± 0.0001
303.15 K, 672.2 kPa, x2 = 0.402 | 0.9564 ± 0.0001
303.15 K, 751.4 kPa, x2 = 0.59 | 0.9555 ± 0.0001
303.15 K, 842 kPa, x2 = 0.798 | 0.9547 ± 0.0001
303.15 K, 897.8 kPa, x2 = 0.283 | 0.9368 ± 0.0001
303.15 K, 983.5 kPa, x2 = 0.402 | 0.9349 ± 0.0001
303.15 K, 1099.1 kPa, x2 = 0.59 | 0.9337 ± 0.0001
303.15 K, 1231.1 kPa, x2 = 0.798 | 0.9326 ± 0.0001
303.15 K, 1300.8 kPa, x2 = 0.283 | 0.9066 ± 0.0001
303.15 K, 1423.2 kPa, x2 = 0.402 | 0.9038 ± 0.0001
303.15 K, 1589.6 kPa, x2 = 0.59 | 0.9021 ± 0.0001
303.15 K, 1779.6 kPa, x2 = 0.798 | 0.9006 ± 0.0001
303.15 K, 1854.5 kPa, x2 = 0.283 | 0.8635 ± 0.0001
303.15 K, 2025.1 kPa, x2 = 0.402 | 0.8591 ± 0.0001
303.15 K, 2259.3 kPa, x2 = 0.59 | 0.8566 ± 0.0001
303.15 K, 2527 kPa, x2 = 0.798 | 0.8543 ± 0.0001
303.15 K, 2578.9 kPa, x2 = 0.283 | 0.8022 ± 0.0001
303.15 K, 2808.4 kPa, x2 = 0.402 | 0.7959 ± 0.0001
303.15 K, 3127.5 kPa, x2 = 0.59 | 0.7921 ± 0.0001
303.15 K, 3455.9 kPa, x2 = 0.283 | 0.7182 ± 0.0001
303.15 K, 3491.8 kPa, x2 = 0.798 | 0.7886 ± 0.0001
303.15 K, 3745.5 kPa, x2 = 0.402 | 0.7091 ± 0.0001
303.15 K, 4156.5 kPa, x2 = 0.59 | 0.7033 ± 0.0001
303.15 K, 4628.3 kPa, x2 = 0.798 | 0.6983 ± 0.0001
313.15 K, 128.9 kPa, x2 = 0.206 | 0.9928 ± 0.0001
313.15 K, 139.2 kPa, x2 = 0.778 | 1 ± 0.0001
313.15 K, 156.2 kPa, x2 = 0.593 | 0.9925 ± 0.0001
313.15 K, 175 kPa, x2 = 0.408 | 0.9921 ± 0.0001
313.15 K, 192.3 kPa, x2 = 0.206 | 0.9894 ± 0.0001
313.15 K, 207.3 kPa, x2 = 0.778 | 0.9946 ± 0.0001
313.15 K, 233 kPa, x2 = 0.593 | 0.989 ± 0.0001
313.15 K, 260.7 kPa, x2 = 0.408 | 0.9874 ± 0.0001
313.15 K, 286.2 kPa, x2 = 0.206 | 0.9837 ± 0.0001
313.15 K, 308.2 kPa, x2 = 0.778 | 0.9881 ± 0.0001
313.15 K, 346.7 kPa, x2 = 0.593 | 0.9829 ± 0.0001
313.15 K, 387.2 kPa, x2 = 0.408 | 0.9799 ± 0.0001
313.15 K, 424.5 kPa, x2 = 0.206 | 0.9746 ± 0.0001
313.15 K, 457.5 kPa, x2 = 0.778 | 0.9798 ± 0.0001
313.15 K, 514.3 kPa, x2 = 0.593 | 0.974 ± 0.0001
313.15 K, 573.2 kPa, x2 = 0.408 | 0.9689 ± 0.0001
313.15 K, 626.8 kPa, x2 = 0.206 | 0.9613 ± 0.0001
313.15 K, 676.8 kPa, x2 = 0.778 | 0.9683 ± 0.0001
313.15 K, 759.4 kPa, x2 = 0.593 | 0.9608 ± 0.0001
313.15 K, 843.8 kPa, x2 = 0.408 | 0.9529 ± 0.0001
313.15 K, 919.1 kPa, x2 = 0.206 | 0.9417 ± 0.0001
313.15 K, 996 kPa, x2 = 0.778 | 0.9519 ± 0.0001
313.15 K, 1113.9 kPa, x2 = 0.593 | 0.9415 ± 0.0001
313.15 K, 1231.8 kPa, x2 = 0.408 | 0.9293 ± 0.0001
313.15 K, 1334.2 kPa, x2 = 0.206 | 0.9132 ± 0.0001
313.15 K, 1453.8 kPa, x2 = 0.778 | 0.9282 ± 0.0001
313.15 K, 1617 kPa, x2 = 0.593 | 0.913 ± 0.0001
313.15 K, 1775.9 kPa, x2 = 0.408 | 0.895 ± 0.0001
313.15 K, 1907.6 kPa, x2 = 0.206 | 0.8722 ± 0.0001
313.15 K, 2096.6 kPa, x2 = 0.778 | 0.8943 ± 0.0001
313.15 K, 2311.9 kPa, x2 = 0.593 | 0.8721 ± 0.0001
313.15 K, 2512.5 kPa, x2 = 0.408 | 0.846 ± 0.0001
313.15 K, 2665.8 kPa, x2 = 0.206 | 0.8143 ± 0.0001
313.15 K, 2967.7 kPa, x2 = 0.778 | 0.8457 ± 0.0001
313.15 K, 3229.5 kPa, x2 = 0.593 | 0.8138 ± 0.0001
313.15 K, 3455.2 kPa, x2 = 0.408 | 0.7772 ± 0.0001
313.15 K, 3600.8 kPa, x2 = 0.206 | 0.7348 ± 0.0001
313.15 K, 4083.3 kPa, x2 = 0.778 | 0.7773 ± 0.0001
313.15 K, 4357.3 kPa, x2 = 0.593 | 0.7335 ± 0.0001
313.15 K, 4556.4 kPa, x2 = 0.408 | 0.6847 ± 0.0001
313.15 K, 4622.8 kPa, x2 = 0.206 | 0.6302 ± 0.0001
313.15 K, 5382.3 kPa, x2 = 0.778 | 0.6845 ± 0.0001
313.15 K, 5581 kPa, x2 = 0.593 | 0.6277 ± 0.0001
313.15 K, 5645.6 kPa, x2 = 0.408 | 0.5668 ± 0.0001
323.15 K, 133.2 kPa, x2 = 0.378 | 0.9948 ± 0.0001
323.15 K, 137 kPa, x2 = 0.791 | 0.995 ± 0.0001
323.15 K, 142.6 kPa, x2 = 0.619 | 0.9967 ± 0.0001
323.15 K, 156.6 kPa, x2 = 0.189 | 0.9918 ± 0.0001
323.15 K, 198.7 kPa, x2 = 0.378 | 0.9914 ± 0.0001
323.15 K, 204.4 kPa, x2 = 0.791 | 0.9921 ± 0.0001
323.15 K, 212.6 kPa, x2 = 0.619 | 0.9926 ± 0.0001
323.15 K, 233.4 kPa, x2 = 0.189 | 0.9875 ± 0.0001
323.15 K, 295.9 kPa, x2 = 0.378 | 0.986 ± 0.0001
323.15 K, 304.7 kPa, x2 = 0.791 | 0.9877 ± 0.0001
323.15 K, 316.4 kPa, x2 = 0.619 | 0.9871 ± 0.0001
323.15 K, 347.1 kPa, x2 = 0.189 | 0.9809 ± 0.0001
323.15 K, 439.4 kPa, x2 = 0.378 | 0.9783 ± 0.0001
323.15 K, 453 kPa, x2 = 0.791 | 0.9812 ± 0.0001
323.15 K, 469.9 kPa, x2 = 0.619 | 0.9793 ± 0.0001
323.15 K, 514.3 kPa, x2 = 0.189 | 0.971 ± 0.0001
323.15 K, 650.1 kPa, x2 = 0.378 | 0.967 ± 0.0001
323.15 K, 671.5 kPa, x2 = 0.791 | 0.9715 ± 0.0001
323.15 K, 695.4 kPa, x2 = 0.619 | 0.9682 ± 0.0001
323.15 K, 758.3 kPa, x2 = 0.189 | 0.9564 ± 0.0001
323.15 K, 956.3 kPa, x2 = 0.378 | 0.9502 ± 0.0001
323.15 K, 990.6 kPa, x2 = 0.791 | 0.9574 ± 0.0001
